# Laboratory results as given in patent US8247211B2, “Glycopeptide antibiotics” (American Cyanamid Company, priority 2001, dated 2012).
# Key:
# Experiment in all cases: In vitro antibacterial evaluation: minimum inhibitory concentration (MIC), broth dilution method
# Assay type in all cases: cell-based
# Streptococcus sp. = settings: broth dilution, 5×10^5 CFU/mL, 18 hours at 35° C.
# Method in brief: (§1)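 First, organisms are seeded at 5×10^5 CFU/mL into Muller-Hinton II […]. Next, antibiotic is applied across 64-0.06 μg/mL by broth dilution (NCCLS M7-A2). Finally, the lowest inhibitory concentration is recorded as MIC.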
# Staphylococcus sp. = settings: for MIC Staphylococcus aureus (ATCC 29213): strain ATCC 29213; for MIC Staphylococcus aureus (GC 1131): strain GC 1131; for MIC Staphylococcus aureus (GC 3051): strain GC 3051; for MIC Staphylococcus aureus (GC 3053): strain GC 3053; for MIC Staphylococcus aureus (GC 4541): strain GC 4541; for MIC Staphylococcus aureus (GC 4542): strain GC 4542; for MIC Staphylococcus aureus (GC 4544): strain GC 4544; for MIC Staphylococcus aureus (GC 4545): strain GC 4545
# Method in brief: as §1
# Enterococcus sp. = settings: broth dilution, 5×10^5 CFU/mL, 18 hours at 35° C.
# Method in brief: as §1
# Escherichia coli = settings: 5×10^5 CFU/mL, 18 hours at 35° C.
# Method in brief: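 Broth dilution per NCCLS M7-A2 in Muller-Hinton II […], inoculum 5×10^5 CFU/mL, antibiotic tested over 64-0.06 μg/mL. MIC is taken as the lowest concentration that inhibits growth. Panel includes recent clinical isolates resistant to methicillin, penicillin and/or vancomycin.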
# [1] = broth dilution, 5×10^5 CFU/mL, 18 hours at 35° C.
# [2] = broth dilution, 18 hours at 35° C.
compound,measurement,setting,value
"COC1CCC2(C)C(CCC3C2CCC2(C)C(C(C)CCC4OCC5OC(OC6C(CO)OC(Oc7ccc(CC8NC(=O)C(C(C)c9ccccc9)NC(=O)CNC(=O)C(CO)NC(=O)C(C(O)C9CNC(=N)N9C9OC(CO)C(O)C(O)C9O)NC(=O)C(C(O)C9CNC(=N)N9)NC8=O)cc7)C(O)C6O)C(O)C(O)C5O4)CCC32)C1 (stereo not drawn) [Example 130, Cyclo[glycyl-β-methylphenylalanyl-O-[4-O-[4,6-O-(3-methoxycholan-24-ylidene)hexopyranosyl]hexopyranosyl]tyrosyl-3-(2-iminoimidazolidin-4-yl)seryl-3-(3-hexopyranosyl-2-iminoimidazolidin-4-yl)serylseryl]]",MIC Streptococcus agalactiae (GC 4564),Streptococcus sp.,8 µg/mL
same,MIC Streptococcus pneumoniae (GC 1894),Streptococcus sp.,1 µg/mL
same,MIC Streptococcus pneumoniae (GC 4565),Streptococcus sp.,4 µg/mL
same,MIC Streptococcus pneumonine (ATCC 6301),Streptococcus sp.,8 µg/mL
same,MIC Streptococcus pyogenes (GC 4563),Streptococcus sp.,16 µg/mL
same,MIC Coagulase Negative Staphylococcus (GC 4547),Staphylococcus sp.; [1],32 µg/mL
same,MIC Coagulase Negative Staphylococcus (GC 4548),Staphylococcus sp.; [1],32 µg/mL
same,MIC Coagulase Negative Staphylococcus (GC 4549),Staphylococcus sp.; [1],16 µg/mL
same,MIC Coagulase Negative Staphylococcus (GC 4551),Staphylococcus sp.; [1],32 µg/mL
same,MIC Coagulase Negative Staphylococcus (GC 6257),Staphylococcus sp.; [1],32 µg/mL
same,MIC Staphylococcus aureus-SMITH (GC 4543),Staphylococcus sp.; [1],32 µg/mL
same,MIC Staphylococcus haemolyticus (GC 4546),Staphylococcus sp.; [1],32 µg/mL
same,MIC Staphylococcus aureus (ATCC 29213),Staphylococcus sp.,32 µg/mL
same,MIC Staphylococcus aureus (ATCC 29213),Staphylococcus sp.; [2],32 µg/mL
same,MIC Staphylococcus aureus (GC 1131),Staphylococcus sp.,32 µg/mL
same,MIC Staphylococcus aureus (GC 1131),Staphylococcus sp.; [2],32 µg/mL
same,MIC Staphylococcus aureus (GC 3051),Staphylococcus sp.,32 µg/mL
same,MIC Staphylococcus aureus (GC 3051),Staphylococcus sp.; [2],32 µg/mL
same,MIC Staphylococcus aureus (GC 3053),Staphylococcus sp.,32 µg/mL
same,MIC Staphylococcus aureus (GC 3053),Staphylococcus sp.; [2],32 µg/mL
same,MIC Staphylococcus aureus (GC 4541),Staphylococcus sp.,32 µg/mL
same,MIC Staphylococcus aureus (GC 4541),Staphylococcus sp.; [2],32 µg/mL
same,MIC Staphylococcus aureus (GC 4542),Staphylococcus sp.,32 µg/mL
same,MIC Staphylococcus aureus (GC 4542),Staphylococcus sp.; [2],32 µg/mL
same,MIC Staphylococcus aureus-SMITH (GC 4543),"Staphylococcus sp.; strain GC 4543, broth dilution, 18 hours at 35° C.",32 µg/mL
same,MIC Staphylococcus aureus (GC 4544),Staphylococcus sp.,32 µg/mL
same,MIC Staphylococcus aureus (GC 4544),Staphylococcus sp.; [2],32 µg/mL
same,MIC Staphylococcus aureus (GC 4545),Staphylococcus sp.,32 µg/mL
same,MIC Staphylococcus aureus (GC 4545),Staphylococcus sp.; [2],32 µg/mL
same,MIC Staphylococcus haemolyticus (GC 4546),"Staphylococcus sp.; strain GC 4546, broth dilution, 18 hours at 35° C.",32 µg/mL
same,MIC Coagulase Negative Staphylococcus (GC 4547),"Staphylococcus sp.; strain GC 4547, broth dilution, 18 hours at 35° C.",32 µg/mL
same,MIC Coagulase Negative Staphylococcus (GC 4548),"Staphylococcus sp.; strain GC 4548, broth dilution, 18 hours at 35° C.",32 µg/mL
same,MIC Coagulase Negative Staphylococcus (GC 4549),"Staphylococcus sp.; strain GC 4549, broth dilution, 18 hours at 35° C.",16 µg/mL
same,MIC Coagulase Negative Staphylococcus (GC 4551),"Staphylococcus sp.; strain GC 4551, broth dilution, 18 hours at 35° C.",32 µg/mL
same,MIC Coagulase Negative Staphylococcus (GC 6257),"Staphylococcus sp.; strain GC 6257, broth dilution, 18 hours at 35° C.",32 µg/mL
same,MIC Enterococccus avium (GC 4558),Enterococcus sp.,16 µg/mL
same,MIC Enterococccus faecalis (ATCC 29212),Enterococcus sp.,32 µg/mL
same,MIC Enterococccus faecalis (GC 2691),Enterococcus sp.,32 µg/mL
same,MIC Enterococccus faecalis (GC 3059),Enterococcus sp.,64 µg/mL
same,MIC Enterococccus faecalis (GC 4552),Enterococcus sp.,32 µg/mL
same,MIC Enterococccus faecalis (GC 4553),Enterococcus sp.,8 µg/mL
same,MIC Enterococccus faecalis (GC 4554),Enterococcus sp.,32 µg/mL
same,MIC Enterococccus faecalis (GC 6189),Enterococcus sp.,32 µg/mL
same,MIC Enterococccus faecium (GC 2243),Enterococcus sp.,8 µg/mL
same,MIC Enterococccus faecium (GC 4556),Enterococcus sp.,64 µg/mL
same,MIC Enterococccus faecium (GC 4557),Enterococcus sp.,32 µg/mL
same,MIC Enterococcus faecalis (GC 2242),Enterococcus sp.,32 µg/mL
same,MIC Escherichia coli (ATCC 25922),Escherichia coli,>64 µg/mL
same,MIC Escherichia coli (GC 4559),Escherichia coli,>64 µg/mL
same,MIC Escherichia coli (GC 4560),Escherichia coli,64 µg/mL
